Laboratory results: EP4656642A1, “ESTROGEN RECEPTOR PROTEOLYSIS TARGETING CHIMERA COMPOUND AND USE THEREOF” (GAN & LEE PHARM CO., LTD, priority 2023, dated 2024)

Columns and labels:
Type in all cases: cell-based
[1] = system: MCF-7 cells; assay: Inhibition of cell proliferation of MCF-7 cells (CCK-8, 9 days); conditions: treated for 9 days, CCK-8 kit (Table 6)
Text: Test Example 4 Inhibitory effect of the PROTAC compounds disclosed in the present disclosure on cell proliferation of MCF-7 cells
The complete medium required for MCF-7 cells (source ATCC) was DMEM (gibco, Product number :11995-065) basal medium containing 10% fetal bovine serum. MCF-7 cells were inoculated in 96-well plates at a density of 800 cells/well, and different concentrations of the PROTAC compounds 1-55 provided in the embodiments of the present disclosure and a positive control sample ARV-471 (source: Innochem) were prepared to treat cells, and cells were treated at 37°C in a cell culture incubator with 5% CO2 for 9 days. Cell viability was detected using a CCK -8 kit (Beyotime , Product number: C0040) according to the manufacturer's instruction. […] Table 5 IC50 values for inhibition of the proliferation of MCF-7 cells by the PROTAC compounds of the present disclosure and positive control sample

[2] = biological target: T1, ERα (Homo sapiens, UniProt P03372); assay: Degradation of ERα in T-47D cells (immunoblotting, 4 h); set-up: host or cells: T-47D
T1 sequence (P03372 1-595): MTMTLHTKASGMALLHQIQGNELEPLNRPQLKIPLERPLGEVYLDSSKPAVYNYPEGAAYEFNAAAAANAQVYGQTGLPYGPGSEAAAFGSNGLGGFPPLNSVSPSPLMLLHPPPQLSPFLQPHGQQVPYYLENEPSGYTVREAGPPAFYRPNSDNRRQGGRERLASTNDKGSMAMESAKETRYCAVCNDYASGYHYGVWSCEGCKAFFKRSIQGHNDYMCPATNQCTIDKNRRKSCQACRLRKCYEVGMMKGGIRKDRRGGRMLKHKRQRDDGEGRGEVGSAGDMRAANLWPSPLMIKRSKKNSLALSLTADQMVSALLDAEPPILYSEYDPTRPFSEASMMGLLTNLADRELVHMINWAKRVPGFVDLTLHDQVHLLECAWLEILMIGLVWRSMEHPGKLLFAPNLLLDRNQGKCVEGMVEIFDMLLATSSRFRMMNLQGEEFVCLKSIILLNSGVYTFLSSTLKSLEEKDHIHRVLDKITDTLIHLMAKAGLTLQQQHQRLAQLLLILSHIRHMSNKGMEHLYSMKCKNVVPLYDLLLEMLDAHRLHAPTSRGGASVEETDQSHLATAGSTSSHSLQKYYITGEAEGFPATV
Experimental: (§1) T-47D cells were inoculated into 6-well plates at a density of 3×10^5 cells/well and cultured at 37°C, 5% CO2 for 24 h. After the cells were attached to the wall, 1µL of the compound solution in dimethyl sulfoxide (final concentration 0.15-1000 nM) was added and continued to be cultured in the incubator with 5% CO2 at 37°C for 4 h. After 4 h, the culture medium was discarded, and each well was washed once with pre-cooled 1×DPBS, and the cells were lysed with a mixture of 50 µL of RIPA lysis buffer (P0013B, Beyotime) and 1× protease inhibitor (P1005, Beyotime), and then centrifuged at 14,000 g for 30 min at 4°C after resting on ice for 20 min, and the supernatant was carefully collected to detect the protein level of ERα by protein immunoblotting (Immunoblotting).

[3] = biological target: T1, ERα; assay: Degradation of ERα in MCF-7 cells (immunoblotting, 4 h)
Experimental: as §1, with “MCF-7” for “T-47D”, “24h.” for “24 h.”, “0.15-1000nM)” for “0.15-1000 nM)”, “in” for “in the”, “incubator at 37°C” for “incubator”, “CO2” for “CO2 at 37°C”
Protein immunoblotting: The total protein concentration in the collected cell lysate supernatant was determined by BCA Protein Concentration Assay Kit (Enhanced) (P0009, Beyotime). According to the total protein concentration detected by BCA, the protein was adjusted to 1 µg/µL with RIPA lysis buffer and 5× SDS-PAGE protein loading buffer (MB01015, Genscript), and the protein was denatured by water bath at 95°C for 5 min, and then centrifuged after denaturation to enrich the condensate on the wall of the centrifuge tubes as a loading sample. […] At the end of electrophoresis, the proteins in the SDS-PAGE gels were transferred to a PVDF membrane at a constant voltage of 100 V for 60 min. After that, the PVDF membrane corresponding to ERα protein and internal reference protein was cut out and incubated in 1×QµickBlock blocking solution (P0252, Beyotime) for 30 min at room temperature on a shaker. […] Protein profiles were analyzed by Image Studio Lite analysis software for grayscale values. Grayscale correction values were calculated for each sample using the Formula: corrected grayscale value = grayscale value of the target protein /corresponding grayscale value of the internal reference. The degradation rate for the compounds was then calculated by comparing the corrected grayscale values of the compound group to the control group. Table 7 Degradation rate (%) of ERα by the PROTAC compounds of the present disclosure and positive control sample in MCF-7 cells

Structure (SMILES)	IC50 [1]	Degradation rate (%) of ERα in T-47D cells ([2]; 1nM compound)	Degradation rate (%) of ERα in T-47D cells ([2]; 10nM compound)	Degradation rate (%) of ERα in MCF-7 cells ([3]; 1nM compound)	Degradation rate (%) of ERα in MCF-7 cells ([3]; 10nM compound)
O=C1CCC(N2Cc3c(ccc4c3OCC43CCN(CC4CN(C(=O)C5CCN(c6ccc([C@@H]7c8ccc(O)cc8CC[C@@H]7c7ccccc7)cc6)CC5)C4)CC3)C2=O)C(=O)N1 (stereo partly shown) [D5]	180 nM	68%	80%	61%	58%
O=C1CCC(N2Cc3c(ccc4c3OCC43CCN(CCN4CCC5(CC4)CCN(c4ccc([C@@H]6c7ccc(O)cc7CC[C@@H]6c6ccccc6)cc4)CC5)CC3)C2=O)C(=O)N1 (stereo partly shown) [A71]	14.5 nM	52%	86%	32%	73%
O=C1CCC(N2Cc3c(ccc4c3OCC43CCN(C(=O)CN4CCC5(CCN(c6ccc([C@@H]7c8ccc(O)cc8CC[C@@H]7c7ccccc7)cc6)C5)C4)CC3)C2=O)C(=O)N1 (stereo partly shown) [H13]	3.24 nM	48%	71%	39%	62%
O=C1CCC(N2Cc3c(ccc4c3OCC43CCN(C(=O)C4CCC5(CC4)CN(c4ccc([C@@H]6c7ccc(O)cc7CC[C@@H]6c6ccccc6)cc4)C5)CC3)C2=O)C(=O)N1 (stereo partly shown) [A83]	39 nM	40%	62%	23%	46%
CC1Cc2c(ccc3[nH]ncc23)C(c2c(F)cc(N3CCC4(CC3)CC(N3CCC(N5CCC6(CC5)COc5c6ccc6c5CN(C5CCC(=O)NC5=O)C6=O)C(F)C3)C4)cc2F)N1CC(F)F (stereo not shown) [G22]	5.08 nM	34%	63%	50%	65%
O=C1CCC(N2C(=O)c3ccc4c(c3C2=O)OCC42CCN(CC3CCN(c4ccc([C@@H]5c6ccc(O)cc6CC[C@@H]5c5ccccc5)cc4)CC3)CC2)C(=O)N1 (stereo partly shown) [H4]	7740 nM	-41%	-48%	-32%	-7%
O=C1CCC(N2Cc3cc4c(cc3C2=O)CCC2(CN(CC3CCN(c5ccc([C@@H]6c7ccc(O)cc7CC[C@@H]6c6ccccc6)cc5)CC3)C2)O4)C(=O)N1 (stereo partly shown) [H2]	5900 nM	-11%	-23%	-77%	-70%

Second part, the compound after the results:

IC50 [1]	Degradation rate (%) of ERα in T-47D cells ([2]; 1nM compound)	Degradation rate (%) of ERα in T-47D cells ([2]; 10nM compound)	Degradation rate (%) of ERα in MCF-7 cells ([3]; 1nM compound)	Degradation rate (%) of ERα in MCF-7 cells ([3]; 10nM compound)	Structure (SMILES)
12.6 nM	42%	79%	43%	80%	CC1CC(N2CCC3(CC2)COc2c3ccc3c2CN(C2CCC(=O)NC2=O)C3=O)CCN1C1CC2(CCN(c3ccc(C4c5ccc(O)cc5CCC4c4ccccc4)cc3)CC2)C1 (stereo not shown) [K18]
< 0.256 nM	42%	72%	48%	53%	O=C1CCC(N2Cc3c(ccc4c3OCC43CCN(C4CC5(CCN(C6CCN(c7ccc([C@@H]8c9ccc(O)cc9CC[C@@H]8c8ccccc8)cc7)CC6)CC5)C4)CC3)C2=O)C(=O)N1 (stereo partly shown) [K4]
9.31 nM	39%	81%	52%	68%	O=C1CCC(N2Cc3c(ccc4c3OCC43CCN([C@@H]4CCN(CC5CCN(c6ccc([C@@H]7c8ccc(O)cc8CC[C@@H]7c7ccccc7)cc6)CC5)C[C@@H]4F)CC3)C2=O)C(=O)N1 (stereo partly shown) [J6]
5.64 nM	78%	83%	63%	69%	O=C1CCC(N2Cc3c(ccc4c3OCC43CCN(C(=O)C4CN(CC5CCN(c6ccc([C@@H]7c8ccc(O)cc8CC[C@@H]7c7ccccc7)cc6)CC5)C4)CC3)C2=O)C(=O)N1 (stereo partly shown) [J9]
2190 nM	28%	41%	-12%	6%	O=C1CCC(N2Cc3c(ccc4c3OC3(CC4)CCN(C4CCC5(CC4)CCN(c4ccc([C@@H]6c7ccc(O)cc7CC[C@@H]6c6ccccc6)cc4)CC5)CC3)C2=O)C(=O)N1 (stereo partly shown) [L20]
86 nM	12%	9%	9%	14%	O=C1CCC(N2C(=O)c3ccc4c(c3C2=O)OCC42CCN(C3CC4(C3)CN(c3ccc([C@@H]5c6ccc(O)cc6CC[C@@H]5c5ccccc5)cc3)C4)CC2)C(=O)N1 (stereo partly shown) [L19]
511 nM	7%	27%	-2%	-3%	O=C1CCC(N2C(=O)c3cc4c(cc3C2=O)OC2(CCN(C3CC5(CCN(c6ccc([C@@H]7c8ccc(O)cc8CC[C@@H]7c7ccccc7)cc6)CC5)C3)CC2)C4)C(=O)N1 (stereo partly shown) [K1]
4.29 nM	53%	57%	35%	64%	O=C1CCC(N2Cc3c(ccc4c3OCC43CCN(C(=O)[C@H]4CC[C@@H](N(CC5CC5)CC5CCN(c6ccc([C@@H]7c8ccc(O)cc8CC[C@@H]7c7ccccc7)cc6)CC5)CC4)CC3)C2=O)C(=O)N1 (stereo partly shown) [N11]
15.2 nM	54%	76%	20%	61%	O=C1CCC(N2Cc3c(ccc4c3OCC43CCN(C(=O)C4CCN(C(=O)C5CCN(c6ccc([C@@H]7c8ccc(O)cc8CC[C@@H]7c7ccccc7)cc6)CC5)CC4)CC3)C2=O)C(=O)N1 (stereo partly shown) [K36]
0.779 nM	67%	90%	66%	88%	CN(C)C(=O)[C@H]1CC(N2CCC3(CC2)COc2c3ccc3c2CN(C2CCC(=O)NC2=O)C3=O)CCN1C1CC2(CCN(c3ccc([C@@H]4c5ccc(O)cc5CC[C@@H]4c4ccccc4)cc3)CC2)C1 (stereo partly shown) [K32]
